Data from patent US8586611B2 (priority 2005, dated 2013).

Key:
Assay type in all cases: in vivo
[1] = tested on: Phytophthora infestans; assay: whole plant or invertebrate; conditions: tomato late blight; spray 17 h after inoculation; compounds without asterisk (not 40 or 10 ppm)
[2] = tested on: Pseudoperonospora cubensis; assay: Test F: cucumber downy mildew, DMSO/acetone/water test suspension, spray the day before inoculation (disease rating, 100 = 100% disease control); conditions: DMSO/acetone/water suspension, spray the day before inoculation, compounds without asterisk
From the text: The test compounds were first dissolved in dimethyl sulfoxide (DMSO) in an amount equal to 4% of the final volume and then suspended at the desired concentration (in ppm) in acetone and purified water (30/70 mix by volume). The resulting test suspensions were then used in test F. Spraying a 250 ppm test suspension on the test plants was the equivalent of a rate of 250 g/ha.
The test suspension was sprayed on cucumber seedlings. The following day the seedlings were inoculated with a spore suspension of Pseudoperonospora cubensis (the causal agent of cucumber downy mildew) and incubated in a saturated atmosphere at 20° C. for 24 h, and then moved to a growth chamber at 20° C. for 6 days, after which disease ratings were made.
Results for Tests A-F are given in Table A. In the table, a rating of 100 indicates 100% disease control and a rating of 0 indicates no disease control (relative to the controls). A dash (-) indicates no test results.

[3] = tested on: Erysiphe graminis f. sp. tritici; assay: Test E: wheat powdery mildew, spray the day before inoculation (disease rating, 100 = 100% disease control); conditions: spray the day before inoculation, compounds without asterisk (not 40 or 10 ppm)
How it was run: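 Protective test: spores of E. graminis f. sp. tritici dusted on wheat seedlings one day after run-off spraying of test suspension (acetone/water with 250 ppm surfactant; 200 ppm = 500 g/ha). Ratings after 7 days in growth chamber at 20° C, 100 = full control, 0 = none, relative to controls.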

[4] = tested on: Plasmopara viticola; assay: Test B: grape downy mildew, spray 24 h after inoculation (disease rating, 100 = 100% disease control); conditions: spray 24 h after inoculation, compounds without asterisk (not 40 or 10 ppm)
How it was run: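 This is a curative spray test, applied 24 h after inoculation. Compounds in 50/50 acetone–water with 250 ppm Trem 014 surfactant were sprayed to run-off on P. viticola-infected seedlings, with 200 ppm equating to 500 g/ha. Plants were kept 5 days in a 20 °C growth chamber, then 24 h humid, and scored 0–100 for disease control relative to controls.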

[5] = tested on: Phytophthora infestans; assay: whole plant or invertebrate; conditions: tomato late blight; spray the day before inoculation; compounds without asterisk (not 40 or 10 ppm)

SMILES | Test D disease rating (100 = 100% disease control, 0 = no disease control) [1] [%] | Test F disease rating (100 = 100% disease control, 0 = no disease control) [2] [%] | Test E disease rating (100 = 100% disease control, 0 = no disease control) [3] [%] | Test B disease rating (100 = 100% disease control, 0 = no disease control) [4] [%] | Test C disease rating (100 = 100% disease control, 0 = no disease control) [5] [%]
Cc1ccc(C)c(CC(=O)N2CCN(c3nc(C(=O)N(C)[C@H](C)c4ccccc4)co3)CC2)c1 [compound 50] | 99 | 100 | 0 | 55 | 100
C[C@H](c1ccccc1)N(C)C(=O)c1coc(N2CCN(C(=O)Cc3cc(C(F)(F)F)ccc3Cl)CC2)n1 [compound 51] | 96 | 100 | 0 | 20 | 100
Cc1cccc(CC(=O)N2CCN(c3nc(C(=O)N(C)[C@H](C)c4ccccc4)co3)CC2)c1 [compound 52] | 74 | 96 | 0 | 20 | 100
C[C@H](c1ccccc1)N(C)C(=O)c1coc(N2CCN(C(=O)Cc3cccc(Br)c3)CC2)n1 [compound 54] | 69 | 50 | 0 | 11 | 100
C[C@H](c1ccccc1)N(C)C(=O)c1coc(N2CCN(C(=O)Cc3cccc(C(F)(F)F)c3)CC2)n1 [compound 55] | 92 | 47 | 0 | 7 | 100
Cc1ccc(C)c(CC(=O)N2CCC(c3nc(C(=O)N(C)[C@H](C)c4ccccc4F)cs3)CC2)c1 [compound 57] | 94 | 99 | 50 | 100 | 100
COc1ccc([C@@H](C)N(C)C(=O)c2csc(C3CCN(C(=O)Cc4cc(C)ccc4C)CC3)n2)cc1 [compound 59] | 63 | 93 | 21 | 84 | 98
Cc1ccc(C)c(CC(=O)N2CCC(c3nc(C(=O)N(C)[C@H](C)c4ccc(Cl)cc4)cs3)CC2)c1 [compound 60] | 42 | 47 | 67 | 95 | 93
Cc1ccc([C@@H](C)N(C)C(=O)c2csc(C3CCN(C(=O)Cc4cc(C)ccc4C)CC3)n2)cc1 [compound 62] | 24 | 43 | 29 | 92 | 92
Cc1ccc(C)c(CC(=O)N2CCC(c3nc(C(=O)N(C)[C@H](C)c4ccc(Br)cc4)cs3)CC2)c1 [compound 63] | 93 | 99 | 0 | 100 | 100
Cc1ccc(C)c(CC(=O)N2CCC(c3nc(C(=O)N(C)[C@H](C)c4ccc(F)cc4)cs3)CC2)c1 [compound 64] | 95 | 93 | 92 | 100 | 100
Cc1cc(C)n(CC(=O)N2CCC(c3nc(C(=O)N(C)[C@H](C)c4ccccc4)cs3)CC2)n1 [compound 65] | 100 | 100 | 0 | 92 | 100
Cc1ccc(C)c(CC(=O)N2CCC(c3nc(C(=O)N(C)[C@H](C)c4cccc(C(F)(F)F)c4)cs3)CC2)c1 [compound 67] | 0 | 99 | 0 | 10 | 68
Cc1ccc(C)c(CC(=O)N2CCC(c3nc(C(=O)N(C)[C@@H](C)c4ccccc4)cs3)CC2)c1 [compound 68] | 16 | 95 | 0 | 47 | 100
COc1cccc([C@@H](C)N(C)C(=O)c2csc(C3CCN(C(=O)Cc4cc(C)ccc4C)CC3)n2)c1 [compound 69] | 0 | 100 | 29 | 88 | 100
CC(c1ccccn1)N(C)C(=O)c1csc(C2CCN(C(=O)Cc3cccc(C(F)(F)F)c3)CC2)n1 (stereo not drawn) [compound 75] | 72 | 0 | 0 | 16 | 100
C[C@H](c1ccccc1)N(C)C(=O)c1csc(C2CCN(C(=O)Cc3cc(Cl)ccc3Cl)CC2)n1 [compound 77] | 100 | 50 | 88 | 100 | 100
Cc1ccc(F)cc1CC(=O)N1CCC(c2nc(C(=O)N(C)[C@H](C)c3ccccc3)cs2)CC1 [compound 80] | 70 | 49 | 29 | 99 | 100
